Measured values as given in patent US10316041B2, “Spiro-lactam NMDA receptor modulators and uses thereof” (Apytinyx Inc., priority 2013, dated 2019).
Like-named read-outs stand apart in the source and are kept apart here.

What was measured:
[1] = system: Schaffer collateral-CA1 synapses in hippocampal slices; assay: Long term potentiation in hippocampal slices; assay type: cell-based, rat
Method: Assays were conducted as described in Zhang et al. (Zhang, X. L., Sullivan, J. A., Moskal, J. R., Stanton, P. K., 2008. A NMDA receptor glycine site partial agonist, GLYX-13, simultaneously enhances LTP and reduces LTD at Schaffer collateral-CA1 synapses in hippocampus. Neuropharmacology. 55, 1238-50) Sprague-Dawley rats (12-18 days old; Taconic Farms) were deeply anesthetized with isoflurane and decapitated. Rat brains were removed rapidly, submerged in ice-cold artificial cerebrospinal fluid (ACSF, 2-4° C.), which contained (in mM): 124 NaCl, 4 KCl, 2 MgSO4, 2 CaCl2, 1.25 NaH2PO4, 26 NaHCO3, 10 glucose; at pH 7.4, gassed continuously with 95% O2/5% CO2). The rat brains were hemisected, the frontal lobes cut off, and individual hemispheres glued using cyanoacrylate adhesive onto a stage immersed in ice-cold ACSF gassed continuously with 95% O2/5% CO2 during slicing. Coronal slices (400 μm thick) were cut using a Vibratome (Leica VT1200S), and transferred to an interface holding chamber for incubation at room temperature for a minimum of one hour before transferring to a Haas-style interface recording chamber continuously perfused at 3 ml/min with oxygenated ACSF at 32±0.5° C. […] A bipolar stainless steel stimulating electrode (FHC Co.) was placed on Schaffer collateral-commissural fibers in CA3 stratum radiatum, and constant current stimulus intensity adjusted to evoke approximately half-maximal fEPSPs once each 30 s ([…]; 100 μs duration). fEPSP slope was measured before and after induction of LTP by linear interpolation from 20 to 80% of maximum negative deflection, and slopes confirmed to be stable to within ±10% for at least 15 min before commencing an experiment. […] The signals were recorded using a Multiclamp 700B amplifier and digitized with a Digidata 1322 (Axon Instruments, USA). Data were analyzed using pClamp software (version 9, Axon Instruments) on an IBM-compatible personal computer.

[2] = Porsolt test (floating time); assay type: in vivo; conditions: 3 mg/kg, IV, 1 hour post dose
[3] = biological target: T1, NMDA receptor (rat cortical membranes) (Rattus norvegicus, UniProt P35439); assay: [3H]MK-801 binding assay (potentiation of binding); conditions: for Activity (%): maximal activity, % maximal stimulation (1 mM glycine)
T1 construct: from tissue; host or cells: rat cerebral cortex membranes
Method: Assays were conducted as described in Moskal et al. (Moskal, J. R., Kuo, A. G., Weiss, C., Wood, P. L., O'Connor Hanson, A., Kelso, S., Harris, R. B., Disterhoft, J. F., 2005. GLYX-13: a monoclonal antibody-derived peptide that acts as an N-methyl-D-aspartate receptor modulator. Neuropharmacology. 49, 1077-87) The potentiation of [^3H]MK-801 binding (5 nM; 22.5 Ci/mmol) to well washed rat cortical membranes (200 μg) was measured under non-equilibrium conditions (15 min @ 25° C.) in the presence of increasing concentrations of test compounds and 50 μM glutamate. Zero levels were determined in the absence of any glycine ligand and in the presence of 30 μM 5.7 DCKA. Maximal stimulation was measured in the presence of 1 mM glycine, and 50 μM glutamate was present in all samples. The facilitation of [^3H]MK-801 binding by tests compounds was calculated by using a 3 parameter log agonist vs. response equation (Graph pad Prism, USA) and potency (EC50 expressed in pM) and maximal activity (% maximal stimulation) were calculated for the test compound.

[4] = read-out: [3H] MK-801 binding assay: EC50
[5] = potentiation of [3H]MK-801 binding, 50 μM glutamate, rat cortical membranes, read-out: pEC50 (converted)

Row | Compound | EC50 [3, 4] | Activity (%) [3] | EC50 [3, 5] | further results
1 | CC(=O)N1CCCC12CN(CC(=O)N[C@H](C(N)=O)[C@@H](C)O)C2=O (single isomer, unassigned) [Compound 6S-FNL-7-F2] | – | – | – | Unified Activity Data: LTP Augmentation (Percent) ([1]; LTP Concentration 1 uM): 150%; Unified Activity Data: Porsolt Floating Time Inhibition (Percent) [2]: 80%
2 | CC(=O)O[C@H](C)[C@H](NC(=O)CN1CC2(CCCN2)C1=O)C(N)=O (stereo partly drawn) [Compound 6S-FNL-3, (2R, 3S)-4-amino-4-oxo-3-(2-(1-oxo-2,5-diazaspiro [3.4]octan-2-yl)acetamido) butan-2-yl acetate] | 1690 nM | – | – | –
3 | (2R, 3S)-4-amino-3-(2-(5-(1-benzyl-5-methyl-1H-1, 2, 3-triazole-4-carbonyl)-1-oxo-2, 5-diazaspiro [3.4] octan-2-yl) acetamido)-4-oxobutan-2-yl acetate [Compound B] | 0.00727 nM | 47% | 0.006 nM | Unified Activity Data: LTP Augmentation (Percent) ([1]; LTP Concentration 0.1 uM): 110%; long-term potentiation after high frequency stimulation of Schaffer collateral-evoked NMDA e.p.s.c.s in CA1 pyramidal neurons ([1]; tested at 0.11 μM, FIG. 5): increased long-term potentiation; Unified Activity Data: Porsolt Floating Time Inhibition (Percent) [2]: 86%

The next lines start with results.

Row | EC50 [3, 4] | Activity (%) [3] | EC50 [3, 5] | Compound | further results
4 | > 10000 nM | – | – | C[C@@H](O)[C@H](NC(=O)CN1CC2(CCCN2C(=O)OCc2ccccc2)C1=O)C(N)=O (stereo in doubt) [Compound 6S-FNL-4, Benzyl 2-(2-((1-amino-3-hydroxy-1-oxobutan-2-yl)amino)-2-oxoethyl)-1-oxo-2,5-diazaspiro [3.4] octane-5-carboxylate] | –
5 | – | 10% | 0.007 nM | C[C@@H](O)[C@H](NC(=O)CN1CC2(CCCN2C(=O)c2ncnn2C)C1=O)C(N)=O (stereo partly drawn) [Compound C, (2S,3R)-3-hydroxy-2-(2-(5-(1-methyl-1H-1,2,4-triazole-5-carbonyl)-1-oxo-2,5-diazaspiro[3.4]octan-2-yl)acetamido) butanamide] | –
6 | – | 5% | 0.159 nM | C[C@@H](O)[C@H](NC(=O)CN1CC2(CCCN2C(=O)c2ncnn2C)C1=O)C(=O)N1CCCC1 (stereo partly drawn) [Compound D, N-((2S, 3R)-3-hydroxy-1-oxo-1-(pyrrolidin-1-yl)butan-2-yl)-2-(5-(1-methyl-1H-1,2,4-triazole-5-carbonyl)-1-oxo-2,5-diazaspiro[3.4]octan-2-yl) acetamide] | –
7 | – | 20% | 0.195 nM | CC(=O)N1CCCC12CN(CC(=O)N[C@H](C(N)=O)[C@@H](C)O)C2=O (stereo partly drawn) [Compound H, (2S,3R)-2-(2-(5-acetyl-1-oxo-2,5-diazaspiro[3.4]octan-2-yl)acetamido)-3-hydroxy butanamide] | –
